Laboratory results as given in patent publication US12084473B2, “β-D-2′-deoxy-2′-α-fluoro-2′-β-C-substituted-2-modified-N6-substituted purine nucleotides for HCV treatment” (Atea Pharmaceuticals, Inc., priority 2015, dated 2024).
Read-outs that look alike come from different tables or passages of the source.

How the values were obtained:
[1] = system: HCV genotype 1b luciferase reporter replicon; assay: microbe, parasite or virus in culture; assay type: cell-based
Protocol: (§1) The plates were cultured for 24 hours prior to the addition of compounds. Six serial one half log dilutions of the test articles (high test concentration of 100.0 μM or high test concentration of 1.0 μM) and human interferon-alpha2b (high test 10.0 U/ml) were prepared in cell culture medium and added to the cultured cells in triplicate wells for each dilution. Six wells in the test plates received medium alone as an untreated control. Following 72 hours of culture in the presence of compound, one of the plates was used for the determination of cytotoxicity by staining with XTT and the other for antiviral efficacy by determination of luciferase reporter activity. Cytotoxicity and efficacy data were collected and imported into a customized Excel workbook for determination of the TC50 and EC50 values. […] The y-axis is the percent of virus control and the x-axis is the concentration of drug in μM. […] The y-axis is the percent of virus control and the x-axis is the concentration of drug in M.

[2] = Cytotoxicity by XTT staining in replicon cells; conditions: human
Protocol: as §1

Huh-7 luc/neo ET cells = assay: Cytotoxicity by XTT staining in replicon cells; conditions: read-out: HCV Replicon CC50; XTT, 72 hours
Protocol: as §1

[3] = system: HCV Genotype 1a, NS5B Mutation L159F and S282T; assay: microbe, parasite or virus in culture; assay type: cell-based
Protocol: (§2) Various patient-derived HCV genotypes containing wild-type and resistance-associated variants were used to determine their relative replication sensitivity to test compounds. Replicon resistance test vectors (RTVs) containing the NS5B genomic regions were prepared using viral RNA isolated from plasma of HCV patients. Each NS5B region was amplified by reverse-transcription polymerase chain reaction and cloned into an HCV replicon RTV which was then transferred by electroporation into Huh-7 cells.

[4] = system: HCV Genotype 1a, NS5B Mutation L159F; assay: microbe, parasite or virus in culture; assay type: cell-based
Protocol: as §2

[5] = system: HCV Genotype 1b, NS5B Mutation C316N; assay: microbe, parasite or virus in culture; assay type: cell-based
Protocol: as §2

[6] = system: HCV Genotype 1b, NS5B Mutation none; assay: microbe, parasite or virus in culture; assay type: cell-based
Protocol: as §2

[7] = system: HCV Genotype 2a, NS5B Mutation none; assay: microbe, parasite or virus in culture; assay type: cell-based
Protocol: as §2

[8] = system: HCV Genotype 2b, NS5B Mutation none; assay: microbe, parasite or virus in culture; assay type: cell-based
Protocol: as §2

[9] = system: HCV Genotype 3a-2, NS5B Mutation none; assay: microbe, parasite or virus in culture; assay type: cell-based
Protocol: as §2

[10] = system: HCV Genotype 4d, NS5B Mutation none; assay: microbe, parasite or virus in culture; assay type: cell-based
Protocol: as §2

HCV S282T replicon = assay: microbe, parasite or virus in culture; assay type: cell-based
Protocol: (§3) A transient transfection assay was performed to determine the sensitivity of the […] of HCV to test compounds. Huh-7 cells were electroporated in the presence of RNA transcribed from wild type or S282T HCV replicon plasmids from the T7 promoter. The transfected cells were seeded in to 96-well plates at 7.5×10^3 cells per well in Dulbecco's Modified Eagle's medium. After 24 hr of incubation, medium was removed and replaced with fresh medium containing no or various concentrations of test compounds. Following an additional 96-hr incubation, the anti-HCV activity was measured by luciferase endpoint with Britelite™ Plus luminescence reporter gene kit (Perkin Elmer, Shelton, CT). Duplicate plates were treated and incubated in parallel for assessment of cellular toxicity by staining with the tetrazolium dye XTT.

HCV wild type replicon = assay: microbe, parasite or virus in culture; assay type: cell-based
Protocol: as §3

[11] = system: human bone marrow progenitor cells; assay: Human Bone Marrow Progenitor Cell Assay; assay type: cell-based; conditions: 14-day incubations, colony counts
Protocol: Fresh human bone marrow progenitor cells (Invitrogen) suspended in either BFU-E or GM-CSF-specific culture medium were added, at 10^5 cells/well, to triplicate serial dilutions of TA in 6-well plates. After 14-day incubations, colony counts were used to determine CC50 values. BFU-E colonies were confirmed using the benzidene technique.

human hepatocytes = assay: Metabolic studies in primary hepatocytes; assay type: in vitro ADME; conditions: 10 μM, 2-24 hr
Protocol: The metabolism of compounds 25, 27 and 5-2, at a concentration of 10 μM, were investigated in fresh primary cultures of human, dog and mouse hepatocytes. Plated hepatocytes from humans (XenoTech, mixed gender, pooled from 10 donors), male Beagle dog (BioreclamationIVT), and male ICR/CD-1 mice (BioreclamationIVT, 8 donors) in 6-well plates with matrigel overlay were incubated in singlet with 10 μM TA. After 2, 4, 6, 8 or 24 hr, intracellular levels of nucleotide prodrugs and their potential metabolites (prodrugs, monophosphates, triphosphates and nucleosides) were quantitated by LC-MS/MS. Concentrations below the lower limit of quantitation (1.5 pmol/10^6 cells for prodrugs, monophosphates and nucleosides and 12 pmol/10^6 cells for triphosphates) were extrapolated from the standard curves.

[12] = system: HCV genotype 1b luciferase reporter replicon; assay: microbe, parasite or virus in culture; assay type: cell-based; conditions: Hepatitis C virus, HuH-7-Luc/Neo-ET, 72 h, read-out: HCV Replicon EC50/EC95: EC50
[13] = Hepatitis C virus, read-out: IC50 Value
[14] = genotype 1a, NS5B L159F and S282T
[15] = genotype 3a-2, no NS5B mutation
[16] = Hepatitis C virus, 96 h, read-out: IC50 Value

With `CC(C)OC(=O)[C@H](C)N[P@](=O)(OCC1O[C@@H](n2cnc3c(N(C)C4CC4)nc(N)nc32)[C@](C)(F)[C@@H]1O)Oc1ccccc1` (stereo partly drawn) [Compound 27, isopropyl ((((S)-(2R,3R,4R,5R)-5-(2-amino-6-(methylcyclopropanamino)-9H-purin-9-yl)-4-fluoro-3-hydroxy-4-methyltetrahydrofuran-2-yl)methoxy)-phenoxy-phosphoryl)-L-alaninate] the EC50 ([1]; Hepatitis C virus, read-out: EC50 in a replicon assay) was 5 nM, the EC95 ([1]; Hepatitis C virus, Huh-7 luc/neo ET cells, 72 hours, luciferase, read-out: HCV Replicon EC50/EC95: EC95) was 25 nM and the “Fold increase in activity compared to parent nucleoside” value ([1]; Table 7) was >1,100. The CC50 at 72 h [2] was greater than 100000 nM, the CC50 (Huh-7 luc/neo ET cells) was greater than 100000 nM and the “cross-resistance to L159F and S282T mutant” value [3] was “neither 25, 27 nor 5-2 compound showed any evidence of cross-resistance”. For the same compound, the IC50 [3, 13] was 14.9 nM, the “Fold Change in IC50 from Sofosbuvir” value [3, 14] was 108.4 and the “Fold Change in IC95 from Sofosbuvir” value [3, 14] was 119.7. The “IC95 Value” [3, 14] was 141.6 nM, the “cross-resistance to L159F mutant” value [4] was “neither 25, 27 nor 5-2 compound showed any evidence of cross-resistance” and the IC50 [4, 13] was 5.1 nM. The “Fold Change in IC50 from Sofosbuvir” value ([4]; genotype 1a, NS5B L159F) was 22.3, the “Fold Change in IC95 from Sofosbuvir” value ([4]; genotype 1a, NS5B L159F) was 29.5 and the “IC95 Value” ([4]; genotype 1a, NS5B L159F) was 36.2 nM. For the same compound, the “cross-resistance to C316N mutant” value [5] was “neither 25, 27 nor 5-2 compound showed any evidence of cross-resistance”, the IC50 [5, 13] was 3.1 nM and the “Fold Change in IC50 from Sofosbuvir” value ([5]; genotype 1b, NS5B C316N) was 23.5. For the same compound, the “Fold Change in IC95 from Sofosbuvir” value ([5]; genotype 1b, NS5B C316N) was 28.7, the “IC95 Value” ([5]; genotype 1b, NS5B C316N) was 16.5 nM and the IC50 [6, 13] was 5 nM. The “Fold Change in IC50 from Sofosbuvir” value ([6]; genotype 1b, no NS5B mutation) was 0.9, the “Fold Change in IC95 from Sofosbuvir” value ([6]; genotype 1b, no NS5B mutation) was 22.2 and the “IC95 Value” ([6]; genotype 1b, no NS5B mutation) was 28.9 nM. For the same compound, the IC50 [7, 13] was 2.9 nM, the “Fold Change in IC50 from Sofosbuvir” value ([7]; genotype 2a, no NS5B mutation) was 7.9 and the “Fold Change in IC95 from Sofosbuvir” value ([7]; genotype 2a, no NS5B mutation) was 12.0. For the same compound, the “IC95 Value” ([7]; genotype 2a, no NS5B mutation) was 16.2 nM, the IC50 [8, 13] was 3.1 nM and the “Fold Change in IC50 from Sofosbuvir” value ([8]; genotype 2b, no NS5B mutation) was 14.4. The “Fold Change in IC95 from Sofosbuvir” value ([8]; genotype 2b, no NS5B mutation) was 20.1, the “IC95 Value” ([8]; genotype 2b, no NS5B mutation) was 14.7 nM and the IC50 [9, 13] was 4.5 nM. The “Fold Change in IC50 from Sofosbuvir” value [9, 15] was 27.5, the “Fold Change in IC95 from Sofosbuvir” value [9, 15] was 34.6 and the “IC95 Value” [9, 15] was 23.3 nM. The IC50 [10, 16] was 5.6 nM, the “Fold Change in IC50 from Sofosbuvir” value ([10]; genotype 4d, no NS5B mutation) was 16.7 and the “Fold Change in IC95 from Sofosbuvir” value ([10]; genotype 4d, no NS5B mutation) was 26.6. The “IC95 Value” ([10]; genotype 4d, no NS5B mutation) was 38.4 nM, the “cross-resistance to S282T variant” value (HCV S282T replicon) was “neither 25, 27, nor 5-2 compounds showed any evidence of cross-resistance” and the IC50 (HCV S282T replicon; [16]) was less than 1 nM. The “Fold Change in IC50 from Sofosbuvir” value (HCV S282T replicon; NS5B Mutation S282T) was greater than 278, the “Fold Change in IC95 from Sofosbuvir” value (HCV S282T replicon; NS5B Mutation S282T) was greater than 84.7 and the IC95 Value (HCV S282T replicon; NS5B Mutation S282T, transient assay, 96-hr) was 11.8 nM. For the same compound, the IC95 Value (HCV wild type replicon) was 4.1 nM, the IC50 (HCV wild type replicon; [16]) was less than 1 nM and the “Fold Change in IC50 from Sofosbuvir” value (HCV wild type replicon; NS5B Mutation None) was greater than 36.4. For the same compound, the “Fold Change in IC95 from Sofosbuvir” value (HCV wild type replicon; NS5B Mutation None) was 53.2, the “cytotoxicity against bone marrow stem cells in vitro” value [11] was “no cytotoxicity” and the “predominant metabolite observed in cultured human hepatocytes” value (human hepatocytes) was “β-D-2′-deoxy-2′-α-fluoro-2′-β-methyl-guanine triphosphate”. It also gave an EC50 [12] of 5 nM.
